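48-hour exposure; five concentrations; linearly interpolated endpoints. TGI marks complete inhibition of growth.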
Assays:
Test in all cases: NCI tumour cell line growth inhibition, 48 h
DU-145 prostate = system: DU-145 prostate
NCI-H460 lung = system: NCI-H460 lung
HOP-62 NSCLC = system: HOP-62 NSCLC
SK-OV-3 ovarian = system: SK-OV-3 ovarian
HCC-2998 colon = system: HCC-2998 colon
EKVX NSCLC = system: EKVX NSCLC
NCI/ADR-RES ovarian = system: NCI/ADR-RES ovarian
U251 CNS = system: U251 CNS
HL-60(TB) leukemia = system: HL-60(TB) leukemia
UACC-62 melanoma = system: UACC-62 melanoma
A549 NSCLC = system: A549 NSCLC
SK-MEL-28 melanoma = system: SK-MEL-28 melanoma
K-562 leukemia = system: K-562 leukemia
MDA-MB-231 breast = system: MDA-MB-231 breast
MDA-N = system: MDA-N
SF-295 CNS = system: SF-295 CNS
HS 578T breast = system: HS 578T breast
SW-620 colon = system: SW-620 colon
MALME-3M melanoma = system: MALME-3M melanoma
IGROV1 ovarian = system: IGROV1 ovarian
NCI-H226 lung = system: NCI-H226 lung
SNB-75 CNS = system: SNB-75 CNS
MOLT-4 leukemia = system: MOLT-4 leukemia
SR leukemia = system: SR leukemia
NCI-H522 lung = system: NCI-H522 lung
SF-539 CNS = system: SF-539 CNS
BT-549 breast = system: BT-549 breast
HT29 colon = system: HT29 colon
HCT-15 colon = system: HCT-15 colon
HCT-116 colon = system: HCT-116 colon
SK-MEL-2 melanoma = system: SK-MEL-2 melanoma
SN12C renal = system: SN12C renal
MDA-MB-435 = system: MDA-MB-435
A498 renal = system: A498 renal
SF-268 CNS = system: SF-268 CNS
RPMI-8226 leukemia = system: RPMI-8226 leukemia
LOX IMVI melanoma = system: LOX IMVI melanoma
ACHN renal = system: ACHN renal
HOP-92 NSCLC = system: HOP-92 NSCLC
PC-3 prostate = system: PC-3 prostate
OVCAR-4 ovarian = system: OVCAR-4 ovarian
SNB-19 CNS = system: SNB-19 CNS
786-0 renal = system: 786-0 renal
TK-10 renal = system: TK-10 renal
KM12 colon = system: KM12 colon
M14 melanoma = system: M14 melanoma
MCF7 breast = system: MCF7 breast
OVCAR-3 ovarian = system: OVCAR-3 ovarian
OVCAR-8 ovarian = system: OVCAR-8 ovarian
T-47D breast = system: T-47D breast
OVCAR-5 ovarian = system: OVCAR-5 ovarian
UACC-257 melanoma = system: UACC-257 melanoma
UO-31 renal = system: UO-31 renal
COLO 205 colon = system: COLO 205 colon
NCI-H23 lung = system: NCI-H23 lung
SK-MEL-5 melanoma = system: SK-MEL-5 melanoma
CCRF-CEM leukemia = system: CCRF-CEM leukemia
RXF 393 renal = system: RXF 393 renal
CAKI-1 renal = system: CAKI-1 renal

Measured: TGI

COc1ccc(Cc2cc(Cc3ccc(OC)cc3)cc(Cc3ccc(OC)cc3)c2)cc1
not listed: COLO 205 colon | NCI-H23 lung | SK-MEL-5 melanoma | CCRF-CEM leukemia | RXF 393 renal | CAKI-1 renal
> 100 µM: all other assays above

O=Cc1ccc2ccocc1-2
not listed: SK-MEL-28 melanoma | MALME-3M melanoma | SNB-75 CNS
> 100 µM: all other assays above
